Here are results for 2 molecules from patent US12102631B2, “Quinolylnitrones for the treatment and prevention of a cerebral stroke or ischaemia” (ISQUAEMIA BIOTECH, S.L., priority 2018, dated 2024).

In assay [1] the test system is Carrageenan-induced rat paw edema. In words: Inhibition of Carrageenan-induced rat paw edema. The note with it: 0.01 mmol/kg intraperitoneally; 3.5 h after Carrageenan. It counts as in vivo, Fisher 344 rats. The method, then:
Inhibition of the Carrageenan-induced edema. Edema was induced in the right hind paw of Fisher 344 rats (150-200 g) by the intradermal injection of 0.1 mL 2% Carrageenan in water. Both sexes were used. Females pregnant were excluded. Each group was composed of 6 animals. The experiment was performed twice for validation. The animals, which have been bred in our laboratory, were housed under standard conditions and received a diet of commercial food pellets and water ad libitum during the maintenance, but they were entirely fasted during the experiment period. Nitrone 23 as well as of the standard drug indomethacin in 0.01 mmol/kg body weight, were diluted in water with few drops of Tween 80 and ground in a mortar before use and they were given intraperitoneally simultaneously with the Carrageenan injection. The rats were euthanized 3.5 h after Carrageenan administration. The difference between the weight of the injected and uninjected paws was calculated for each animal. The change in paw weight was compared with that in control animals (treated with water/or Tween-water) and expressed as a percent inhibition of the edema % ICPE values (Table 2). Values % ICPE are the mean from two different experiments (n=6 animals each time) with a standard error of the mean less than 10%.
A general note: Carrageenan injected into the paw causes an acute inflammation.

Assay [2] has as its system primary neuronal cultures subjected to OGD. The experiment in a line: ROS formation in primary neuronal cultures after OGD. It counts as cell-based, rat. The note with it: 2 h recovery after 4 h OGD; significant at 100 μM. The protocol:
Measurement of the ROS formation. To detect the intracellular ROS formation a nonfluorescent and cell permeable reagent was used according to the supplier instructions (Sigma, MAK143). The reagent enters into the cells and reacts with ROS (especially superoxide and hydroxyl radicals) in the cytoplasm, resulting in a fluorometric product proportional to the amount of ROS present. The reagent was added to the cells at the moment that they were subjected to different treatments. After recovery period for 2 h, the fluorescence intensity was at 490 nm λex and 535 nm λem.
Exposure of neuronal cultures to 4 h OGD induced significant ROS generation after 2 h recovery in normoxic and normoglycemic conditions (R2 h) (210%, p<0.005 compared with 100% control) (FIG. 5A). […] ROS generation may induce lipid peroxidation and cell membrane damage. […] The decrease of ROS formation and lipid peroxidation were significant at 100 μM QN 23, in accordance with the concentration at which the QN 23 had the higher neuroprotective activity against experimental ischemia in neuronal cultures (FIG. 4 and Table 1).

Assay [3] concerns tMCAO in C57BL/6 mice. The experiment in a line: Grip strength test after transient middle cerebral artery occlusion (tMCAO). It counts as in vivo. The protocol:
Animal model of focal cerebral ischemia. Transient occlusion of a distal branch of the middle cerebral artery (tMCAO) was induced in male C57BL/6 mice (9-12 week old, Charles River) as previously described.^57 The animals were housed in a light/dark cycle (12 hour), humidity and temperature (22±2° C.) controlled environment with food and water available ad libitum. Briefly, mice were anesthetized with 4% isoflurane for induction and 1.5-2% isoflurane for maintenance (in 79% N2/21% O2). After drilling a small hole on the temporal bone, the middle cerebral artery (MCA) was compressed for 60 min with a 30-G needle using a micromanipulator. During the surgery, body temperature was maintained between 37.0±0.5° C. using a homoeothermic blanket and CBF was monitored using laser-Doppler flowmetry to confirm MCA occlusion. Buprenorphine (0.05-0.1 mg/kg) was administered subcutaneously immediately before the procedure. A total of 28 mice were subjected to tMCAO according to the design of the study. We performed a power analysis to determine sample size (significance level set at 0.05, the power set at 0.8 (80%)) resulting in 8 animals per experimental group. Surgical inclusion criteria: a reduction in blood flow to <25% of baseline value during ischemia period, and a recovery of 75% of baseline value in the reperfusion period. […] Mice were randomly assigned using a randomization software to the following experimental groups (n=8 per group): vehicle (saline-EtOH 90:10 vol/vol), nitrone 23 (1.5 mg/kg) and nitrone 23 (2.0 mg/kg). The treatments were administered intraperitoneally at the onset of reperfusion period by a blinded investigator. […]
Motor-deficit evaluation, grip strength test. […] A total of 6 trials were conducted for each test and the strength value was calculated as the mean of them.
To assess the neuroprotective effect of QN 23 on experimental ischemic stroke, we induced a transient middle cerebral artery occlusion (tMCAO) and evaluated the motor deficits by grip strength test at 24 h and 48 h after the administration of QN 23. […]

The subject of assay [4] is tMCAO in C57BL/6 mice. The experiment in a line: Infarct size (TTC staining) after tMCAO. It counts as in vivo. The note with it: 2.0 mg/kg; 48 h after tMCAO. The protocol:
Animal model of focal cerebral ischemia. Transient occlusion of a distal branch of the middle cerebral artery (tMCAO) was induced in male C57BL/6 mice (9-12 week old, Charles River) as previously described.^57 The animals were housed in a light/dark cycle (12 hour), humidity and temperature (22±2° C.) controlled environment with food and water available ad libitum. Briefly, mice were anesthetized with 4% isoflurane for induction and 1.5-2% isoflurane for maintenance (in 79% N2/21% O2). After drilling a small hole on the temporal bone, the middle cerebral artery (MCA) was compressed for 60 min with a 30-G needle using a micromanipulator. During the surgery, body temperature was maintained between 37.0±0.5° C. using a homoeothermic blanket and CBF was monitored using laser-Doppler flowmetry to confirm MCA occlusion. […]
Infarct volume evaluation. The size of infarction was evaluated at 48 hours after MCAO using 2,3,5-tetrazolium chloride (TTC) staining.^58 Mice were sacrificed by transcardial perfusion with ice-cold saline under deep anesthesia. […] The infarct areas were measured using the Image-J software and the infarct volume was determined by linear integration of the measured lesion areas and distances over the sections. […]
To examine the efficacy of QN 23 treatment in animals subjected to tMCAO, the infarct size was calculated 48 h after tMCAO model induction. […]

Assay [5] concerns tMCAO in C57BL/6 mice. The note with it: 40 mg/kg; data recently reported by the group; cited from earlier work.

Each structure is given as a SMILES string. Where two headings read alike, the source gives them in different places.

For `COc1ccc2nc(Cl)c(/C=[N+](\[O-])C(C)(C)C)cc2c1` [Compound 23, (Z)—N-tert-Butyl-1-(2-chloro-6-methoxyquinolin-3-yl)methanimine oxide], in assay [1], the ICPE % worked out at 48.5 ± 0.8 %. In addition, in assay [2], the ROS formation result is “significantly decreased to the control value”. For the same molecule, the “motor deficit compared with vehicle (in words)” value in assay [3] (1.5 mg/kg and 2.0 mg/kg, 48 h after treatment) is recorded as “significant decrease of motor deficit”. Further, the “grip strength compared with vehicle (in words)” value in assay [3] (2.0 mg/kg, 24 h after treatment) is on record as “improvement in the grip strength which was significant”. In addition, in assay [3] (48 h after treatment), the “improvement of grip strength” value worked out at 20.7%. Moreover, the “size of the ischemic lesion (in words)” value in assay [4] is recorded as “significantly lower than in vehicle treated animals”.

`CC(C)(C)/[N+]([O-])=C/c1ccc(S(=O)(=O)O)cc1S(=O)(=O)O` [Compound 2, sodium (Z)-4-((tert-butyloxidoazanylidene)methyl)benzene-1,3-disulfonate, reference compound]: the “size of the ischemic lesion (in words)” value in assay [5] is reported as “did not reduce the size of the ischemic lesion”.
